Measurements reported in patent US20120021014A1, “CORROSION CURRENT-GENERATING METAL PARTICULATES AND USE THEREOF” (priority 2010, published 2012).

Experiments:
human keratinocyte cells = assay: Hydrogen peroxide production in human keratinocytes (CM-H2DCFDA fluorescence); type: cell-based; conditions: 0.03% positive control; 60 Minutes
Protocol: The cells were treated with different amounts of the magnesium powder.

Albino male CD-1 mice = assay: Oxazolone immune cell-mediated skin inflammation model (ear biopsy weight); type: in vivo; conditions: 1 mg/ml positive control, topical to ear; 24 hours
[1] = system: male albino Wistar rats (SPRAGUE DAWLEY); assay: CFA-induced ankle arthritis, incapacitance test (weight bearing); type: in vivo; conditions: positive control, 3 mg/kg once daily prior to the functional measurements
[2] = system: male albino Wistar rats (SPRAGUE DAWLEY); assay: CFA-induced ankle arthritis, joint swelling (paw volume difference); type: in vivo; conditions: positive control, 3 mg/kg once daily; CFA-induced paw vs control paw

SMILES: OO [H2O2, hydrogen peroxide]
- Hydrogen peroxide production (fluorescence 485 nm excitation/530 nm emission) (human keratinocyte cells): 150.11 ± 2.9

SMILES: C[C@]12CCC(=O)C=C1CC[C@@H]1[C@@H]2[C@@H](O)C[C@@]2(C)[C@H]1CC[C@]2(O)C(=O)CO [Hydrocortisone, hydrocortisone]
- Percent Inhibition of Skin Inflammation (Albino male CD-1 mice): 70.3% ± 6.6%

SMILES: CN1CC[C@]23c4c5ccc(O)c4O[C@H]2[C@@H](O)C=C[C@H]3[C@H]1C5.O=S(=O)(O)O [Morphine, morphine sulphate]
- Deficiency Improvement, MEAN IMPROVEMENT (weight bearing percent minus Day 4 baseline, averaged over all time points) [1]: 16.85
- MEAN PAW VOLUME DIFFERENCE [2]: 1.38 mL
